This note sets out measurements from patent EP1724268A1, “COMPOUND HAVING TGF-BETA INHIBITORY ACTIVITY AND PHARMACEUTICAL COMPOSITION CONTAINING SAME” (KIRIN BEER KABUSHIKI KAISHA, priority 2004, dated 2005).

The subject of this experiment is TGFβ signal. Description: TGFβ signal inhibitory activity, (SBE)4-Luc reporter in A549 cells (Test Examples 1A and 1B). Particulars: Homo sapiens, A549, read-out: TGFβ inhibition rate, %; for inhibition at 1 µM: test compound 1 µM. In kind it is cell-based, human. The procedure: Test Example 1A: TGFβ signal inhibitory activity (in vitro test) The compounds according to the present invention was evaluated for TGFβ signal inhibitory activity according to the method described in J. Boil .Chem., 273, 21145-21152 (1998). Specifically, a plasmid having four tandem binding sequences of Smad3, a TGF-beta signal transducer, to the upstream of a luciferases gene were used as a reporter plasmid ((SBE)4-Luc) to detect TGF-beta signal, This reporter gene was introduced into human pulmonary carcinoma epithelial cells (A549) (available from ATCC) to establish a stable cell line. A test compound and TGFβ-1 (2 ng/ ml) were added to the cells, and the mixture was cultured for 4 hr. In this case, the compounds according to the present invention synthesized in the Examples were used as the test compound. After the culture, the luciferase activity of the cells were measured by chemiluminescence (Steady Glo (trademark) luciferase assay system, available from Promega). Likewise, the luciferase activity was measured as a control against the culture of cells with the addition of TGFβ only and the culture of cells without the addition of both TGFβ and the test compound.
The TGFβ inhibition (%) was calculated by the following equation, based on the measurement results. TGFβ inhibition(%) = (A-B)/(A-C) × 100 [formula] wherein • A: luciferase activity with the addition of TGFβ1 and without the addition of test compound (relative luciferase unit), • B: luciferase activity with the addition of both TGFβ1 and test compound (relative luciferase unit), and • C: luciferase activity without the addition of both TGFβ1 and test compound (relative luciferase unit).
The test was carried out for each of test compound at the concentrations of 3 µM and 10 µM. For certain test compounds, the test was further carried out for test compound at the concentration of 1 µM.
For the compounds of Reference Examples, the TGFβ signal inhibitory activity was evaluated in the same manner as in Test Example 1A.

Where [1] appears, read: 3 µM, compounds of Reference Examples (Test Example 1B).
[2] abbreviates: 10 µM, compounds of Reference Examples (Test Example 1B).
The mark [3] stands for this setting: test compound 3 µM, Reference Examples, Table 1B.
[4] abbreviates: test compound 10 µM, Reference Examples, Table 1B.
Setting [5] is: test compound 3 µM, TGFβ-1 2 ng/ml, 4 hr, Table 1A.
Where [6] appears, read: test compound 10 µM, TGFβ-1 2 ng/ml, 4 hr, Table 1A.

Read-outs that look alike come from different tables or passages of the source.

As to `COc1cc2nccc(Oc3cc4cccnc4nc3-c3ccccc3)c2cc1OC` [Compound r422], the inhibition – broadly, the share of the control response that was lost under treatment – at 3 µM under setting [1] is 100%. In addition, under setting [2], the inhibition at 10 µM was 100%.
As to `COc1cc2nccc(Oc3ccc(Br)cc3C(=O)c3ccccc3)c2cc1OC` [Compound r70], the inhibition at 3 µM under setting [3] was 73%. Also, under setting [4], the inhibition at 10 µM came to 100%.
As for `COc1cc2c(Oc3cc4ccccc4nc3C)ccnc2cc1OCC(CO)(CO)CO` [Compound r388], under setting [1], the inhibition at 3 µM turned out to be 88%. Moreover, under setting [2], the inhibition at 10 µM turned out to be 100%.
With `COc1cc2nccc(Oc3ccccc3Cc3ccccc3)c2cc1OC` [Compound r1, 4-(2-Benzylphenoxy)-6,7-dimethoxyquinoline], the inhibition at 3 µM under setting [3] stood at 5%. The inhibition at 10 µM under setting [4] turned out to be 53%.
Take `CCc1ccc(Oc2ccnc3ccccc23)c(-c2ncccn2)n1` [Compound 117, 4-(6-Ethyl-2-pyrimidin-2-yl-pyridin-3-yloxy)-quinoline]: under setting [5], the inhibition at 3 µM turned out to be 96%. Besides, the inhibition at 10 µM under setting [6] was 100%.
For `COc1cc2c(Oc3cc4cnccc4nc3C)ccnc2cc1OCC(O)CO` (centres unmarked) [Compound r408], the inhibition at 3 µM under setting [1] was 38%. In addition, under setting [2], the inhibition at 10 µM was 79%.
Take `CCC(O)c1cc(OC)ccc1Oc1ccnc2cc(OC)c(OC)cc12` (centres unmarked) [Compound r11]: the inhibition at 3 µM under setting [3] is 28%. In addition, the inhibition at 10 µM under setting [4] was 66%.
`COc1cc2c(Oc3cc4cccnc4nc3C)ccnc2cc1OCCCCO` [Compound r405]: under setting [1], the inhibition at 3 µM is 92%. In addition, under setting [2], the inhibition at 10 µM was determined as 100%.
As to `COc1cc2ncnc(Oc3cc(C)c(C)nc3-c3ccccn3)c2cc1OC` [Compound 27, 4-(5,6-Dimethyl-[2,2']bipyridin-3-yloxy)-6,7-dimethoxy-quinazoline], the inhibition at 1 µM (TGFβ-1 2 ng/ml, 4 hr, Table 1A) came out at 89%. Further, under setting [5], the inhibition at 3 µM was determined as 100%.
Take `Cc1ccc(-c2nc(C)c(C)cc2Oc2ncnc3ccccc23)nc1` [Compound 38, 4-(5,6,5'-Trimethyl-[2,2']bipyridin-3-yloxy)-quinazoline]: the inhibition at 3 µM under setting [5] worked out at 45%. For the same compound, the inhibition at 10 µM under setting [6] was 89%.
Regarding `CC/C=C\CCOC(=O)c1ccccc1Oc1ccnc2cc(OC)c(OC)cc12` [Compound r100], the inhibition at 3 µM under setting [3] was determined as 0%. In addition, under setting [4], the inhibition at 10 µM amounted to 82%.
For the compound `COc1cc2c(Oc3cc(C)c(C)nc3-c3cccc(C)n3)ccnc2cc1OCC(CO)CO` [Compound r448], the inhibition at 3 µM under setting [1] amounted to 70%. The inhibition at 10 µM under setting [2] came out at 97%.
Take `CCc1ccc(Oc2ccnc3ccc(OCc4ccccc4)cc23)c(-c2ccccn2)n1` [Compound 183, 3-(6-Benzyloxy-quinolin-4-yloxy)-6-ethyl-[2,2']bipyridine]: the inhibition at 3 µM under setting [5] is 100%. Further, the inhibition at 10 µM under setting [6] worked out at 100%.
For the compound `COc1cc2nccc(Oc3cc4ccncc4cc3-c3ccccn3)c2cc1OC` [Compound r303, 6,7-Dimethoxy-4-(7-pyridin-2-yl-isoquinolin-6-yloxy)-quinoline], the inhibition at 3 µM under setting [1] stood at 96%.
Take `COc1cc2ncnc(Oc3ccc(C)cc3C(=O)c3ccccc3)c2cc1OC` [r161]: under setting [3], the inhibition at 3 µM was found to be 25%. In addition, under setting [4], the inhibition at 10 µM was 83%.
Turning to `COc1cc2nccc(Oc3ccc(-n4ccnc4)cc3I)c2cc1OC` [r171], the inhibition at 3 µM under setting [1] was 11%. Also, the inhibition at 10 µM under setting [2] is 76%.
On the same counts, the results for `CCCOC(=O)c1cc2ccccc2cc1Oc1ccnc2cc(OCCCl)c(OC)cc12` [Compound r322] are 50% and 88%.
As to `CCCNC(=O)NCCOc1ccc2nccc(Oc3ccc(CC)nc3-c3ccccn3)c2c1` [Compound 189, 1-{2-[4-(6-Ethyl-[2,2']bipyridinyl-3-yloxy)-quinolin-6-yloxy]-ethyl}-3-propyl-urea], the inhibition at 3 µM under setting [5] is 97%. Further, the inhibition at 10 µM under setting [6] was 99%.
Regarding `COc1cc2nccc(Oc3ccc(C)cc3C(=O)c3ccc(OCCN4CCCCC4)cc3)c2cc1OC` [Compound r190], under setting [1], the inhibition at 3 µM was determined as 30%. The inhibition at 10 µM under setting [2] came out at 86%.
Take `COc1cc2nccc(Oc3ccc(C)nc3C(OC(C)=O)c3cccc(C)n3)c2cc1OC` (centres unmarked) [Compound r219]: the inhibition at 3 µM under setting [1] was found to be 20%. The inhibition at 10 µM under setting [2] amounted to 67%.
Regarding `Brc1ccc(-c2nc3ncccc3cc2Oc2ccnc3ccccc23)cc1` [Compound 82, 2-(4-Bromo-phenyl)-3-(quinolin-4-yloxy)-[1,8]naphthyridine], the inhibition at 3 µM under setting [5] was determined as 25%. Besides, the inhibition at 10 µM under setting [6] was found to be 67%.
Regarding `CCOC(=O)c1cc(Br)ccc1Oc1ccnc2cc(OC)c(OC)cc12` [Compound r85], under setting [3], the inhibition at 3 µM was determined as 87%. In addition, the inhibition at 10 µM under setting [4] came out at 100%.
On to `CCCCC(O)c1cc(C)ccc1Oc1ccnc2cc(OC)c(OC)cc12` (centres unmarked) [r10], for which the inhibition at 3 µM under setting [3] was found to be 38%. Besides, under setting [4], the inhibition at 10 µM came to 87%.
For the compound `COc1cc2c(Oc3cc4ccccc4nc3C)ccnc2cc1OC[C@H](O)CO` [Compound r386], under setting [1], the inhibition at 3 µM turned out to be 99%.
Turning to `Cc1cc(Oc2ccnc3ccc(-c4ccc[nH]4)cc23)c(-c2ccccn2)nc1C` [Compound 168, 5,6-Dimethyl-3-[6-(1H-pyrrol-2-yl)-quinolin-4-yloxy]-[2,2']bipyridine], under setting [5], the inhibition at 3 µM amounted to 92%. For the same compound, the inhibition at 10 µM under setting [6] turned out to be 100%.
Take `CCOC(=O)c1ccc(Cl)cc1Oc1ccnc2cc(OC)c(OC)cc12` [Compound r81]: the inhibition at 3 µM under setting [3] was found to be 91%. Further, the inhibition at 10 µM under setting [4] amounted to 100%.
Take `COc1cc2nccc(Oc3cc(C)c(C)nc3-c3ccc(O)nc3)c2cc1OC` [Compound r430]: under setting [1], the inhibition at 3 µM was 19%. The inhibition at 10 µM under setting [2] was 78%.
For `Cc1cc(Oc2ccnc3cc(OCCO)ccc23)c(-c2ccccn2)nc1C` [Compound 143, 2-[4-(5,6-Dimethyl-[2,2']bipyridinyl-3-ylox)-quinolin-7-yloxy]-ethanol], the inhibition at 3 µM under setting [5] was 100%. Further, the inhibition at 10 µM under setting [6] was 100%.
As to `CCOC(=O)/C(C)=C/c1cc(OC)ccc1Oc1ccnc2cc(OC)c(OC)cc12` [r8], under setting [3], the inhibition at 3 µM turned out to be 10%. Further, the inhibition at 10 µM under setting [4] stood at 59%.
With `COc1cc2nccc(Oc3ccc(OCc4ccccc4)cc3C(C)=O)c2cc1OC` [Compound r175, 1-[5-Benzyloxy-2-(6,7-dimethoxy-quinotin-4-yloxy)-phenyl]-ethanone], the inhibition at 3 µM under setting [1] is 13%. Besides, the inhibition at 10 µM under setting [2] came to 60%.
On the same counts, the results for `COc1cc2nccc(Oc3cc4ccccc4nc3C)c2cc1OC` [r276] are 89% and 100%.
On to `Cc1cc(Oc2ccnc3cc(C(F)(F)F)ccc23)c(-c2ccccn2)nc1C` [Compound 15, 5,6-Dimethyl-3-(7-trifluoromethyl-quinolin-4-yloxy)-[2,2']bipyridine], for which the inhibition at 3 µM under setting [5] turned out to be 99%. Also, under setting [6], the inhibition at 10 µM was 100%.
For the compound `COc1cc2nccc(Oc3ccc4ccccc4c3C(C)=O)c2cc1OC` [r42], under setting [3], the inhibition at 3 µM was 90%. In addition, under setting [4], the inhibition at 10 µM came to 93%.
Turning to `CCN(CC)CCOc1cc2nccc(Oc3ccc(C)cc3C(=O)c3ccccc3)c2cc1OC` [Compound r125], the inhibition at 3 µM under setting [3] was determined as 98%. For the same compound, the inhibition at 10 µM under setting [4] turned out to be 100%.
On to `Fc1ccc2nccc(Oc3cc4cccnc4nc3-c3ccccc3)c2c1` [Compound 53, 3-(6-Fluoro-quinolin-4-yloxy)-2-phenyl-[1,8]naphthyridine], for which, for the setting “TGFβ-1 2 ng/ml, 4 hr, Table 1A”, the inhibition at 1 µM came to 43%. Also, under setting [5], the inhibition at 3 µM worked out at 83%.
